# Results taken from patent publication US20210070747A1, “2(1H)-QUINOLINONE DERIVATIVE” (priority 2017, published 2021).
# Where two headings read alike, the source gives them in different places.
# What was measured:
# [1] = target: T1, E. coli DNA gyrase (Escherichia coli, UniProt P0AES6); assay: Test for evaluating the activity of inhibiting E. coli DNA gyrase enzyme (Method 2, supercoiling, recombinant gyrA/gyrB complex); format: biochemical
# T1 construct: made in house; host or cells: E. coli BL21 (DE3)
# Procedure: The enzymatic activity of E. coli DNA gyrase was measured by a method comprising reacting DNA gyrase and its substrate, relaxed pBR322 (Inspiralis), in the presence of ATP and detecting the post-reaction supercoiled pBR322/relaxed pBR322 ratio with H19.
# Specifically, to 1 ng/μL of relaxed pBR322, E. coli DNA gyrase enzyme (the gyrA or gyrB gene was incorporated into the pET15b plasmid and after expressing them in E. coli BL21 (DE3), purification was performed using a Ni-NTA column to form a complex at room temperature) was added at a final concentration of 0.135 nmol/mL and the mixture was incubated for 60 minutes at room temperature. This reaction was carried out in 20 mmol/L tris-HCl buffered solution (pH 8.0) comprising 0.5 mmol/L ATP, 0.005% bridge 35, 35 mmol/L ammonium acetate, 8 mmol/L magnesium chloride, 4.6% glycerol, and 1 mmol/L dithiothreitol. To the reaction mixture, H19 was added to bring the reaction to an end; thereafter, the supercoiled pBR322/relaxed pBR322 ratio was detected at excitation wavelength/emission wavelength=485 nm/535 nm. An inhibition curve was obtained by allowing the analyte compound to be present at varying concentrations during the reaction described above.
# [2] = tested on: E. Coli ATCC 25922; assay: Test for evaluating antibacterial activity (E. coli), broth microdilution MIC; format: cell-based; details: Escherichia coli, ATCC25922; 35° C., 18 hours, cation-adjusted Mueller-Hinton medium
# Procedure: Minimum inhibitory concentration (MIC) was measured using the broth microdilution method described below in accordance with a modification of the standard method specified by CLSI (Clinical & Laboratory Standards Institute).
# Bacterial cells under test were cultured overnight on a heart infusion agar medium, scraped off and suspended at a concentration equivalent to McFarland 0.5 turbidity; the suspension thus obtained was diluted 10 folds to give a liquid inoculum. The inoculum (0.005 mL) was inoculated on a cation-adjusted Mueller-Hinton medium containing the analyte compound and cultured at 35° C. for 18 hours. A minimum drug concentration at which no bacterial growth was macroscopically visible was designated MIC.
# [3] = Method 2, read-out: E. Coli Gyrase supercoiling IC50
Structure (SMILES),"IC50 [1, 3] [nM]",MIC [2] [µg/mL],IC50 [1] [nM],"inhibition at 10 µM ([1]; Method 2, at 10000 nM) [%]"
"CNc1cccc2cc(C(=O)Nc3cnc(NCCN4CCN(C)CC4)nc3)c(=O)[nH]c12 [Example 34, 8-(methylamino)-N-(2-{[2-(4-methylpiperazine-1-yl)ethyl]amino}pyrimidine-5-yl)-2-oxo-1,2-dihydroquinoline-3-carboxamide]",23.2,> 64,,
"CNc1cccc2cc(C(=O)Nc3cnc(NCc4csc(N)n4)nc3)c(=O)[nH]c12 [Example 35, N-(2-[[(2-Amino-1,3-thiazol-4-yl)methyl]amino]pyrimidin-5-yl)-8-(methylamino)-2-oxo-1,2-dihydroquinoline-3-carboxamide]",1.47,> 4,,
"CNc1cccc2cc(C(=O)NCCc3noc(=O)[nH]3)c(=O)[nH]c12 [Example 36, 8-(methylamino)-2-oxo-N-[2-(5-oxo-4,5-dihydro-1,2,4-oxadiazole-3-y1)ethyl]-1,2-dihydroquinoline-3-carboxamide]",71.9,> 32,,
"CNc1cccc2cc(C(=O)Nc3ccc(C(=O)NC(CO)CO)cc3)c(=O)[nH]c12 [Example 38, N-{4-[(1,3-dihydroxypropane-2-yl)carbamoyl]phenyl}-8-(methylamino)-2-oxo-1,2-dihydroquinoline-3-carboxamide]",4730,,,
"CNc1cccc2cc(C(=O)Nc3cnc(N4CCC(N)(C(=O)O)CC4)nc3)c(=O)[nH]c12.Cl [Example 39, 4-Amino-1-(5-[[8-(methylamino)-2-oxo-1,2-dihydroquinoline-3-carbonyl]amino]pyrimidin-2-yl)piperidine-4-carboxylic acid-hydrochloride]",,> 8,48.7,
"CNc1cccc2cc(C(=O)Nc3cnc(NCCCN(CCO)CCO)nc3)c(=O)[nH]c12 [Example 41, N-[2-({3-[bis(2-hydroxyethyl)amino]propyl}amino)pyrimidine-5-yl]-8-(methylamino)-2-oxo-1,2-dihydroquinoline-3-carboxamide]",149,> 64,,
"CNc1cc(F)cc2cc(C(=O)N(C)c3cncnc3)c(=O)[nH]c12 [Example 61, 6-fluoro-N-methyl-8-(methylamino)-2-oxo-N-(pyrimidine-5-yl)-1,2-dihydroquinoline-3-carboxamide]",334,,,
"CNc1cc(F)cc2cc(C(=O)Nc3cnc(C(=O)NCCCN4CCOCC4)nc3)c(=O)[nH]c12 [Example 82, 6-fluoro-8-(methylamino)-N-(2-{[3-(morpholine-4-yl)propyl]carbamoyl}pyrimidine-5-yl)-2-oxo-1,2-dihydroquinoline-3-carboxamide]",0.47,0.25,,
"CNc1cc(F)cc2cc(C(=O)Nc3ccc(C(=O)NCCN4CCOCC4)cc3CN(C)C3CCN(C)CC3)c(=O)[nH]c12 [Example 84, 6-fluoro-8-(methylamino)-N-(2-{[methyl(1-methylpiperidine-4-yl)amino]methyl}-4-{[2-(morpholine-4-yl)ethyl]carbamoyl}phenyl)-2-oxo-1,2-dihydroquinoline-3-carboxamide]",11.4,> 32,,
"CNc1cc(F)cc2cc(C(=O)Nc3ccc(C(=O)NCCN4CCOCC4)cc3C)c(=O)[nH]c12 [Example 86, 6-fluoro-8-(methylamino)-N-(2-methyl-4-{[2-(morpholine-4-yl)ethyl]carbamoyl}phenyl)-2-oxo-1,2-dihydroquinoline-3-carboxamide]",34.4,> 4,,
"CNc1cc(F)cc2cc(C(=O)Nc3nccn3C)c(=O)[nH]c12 [Example 87, 6-fluoro-8-(methylamino)-N-(1-methyl-1H-imidazole-2-yl)-2-oxo-1,2-dihydroquinoline-3-carboxamide]",1040,,,
"CNc1cc(F)cc2cc(C(=O)Nc3ccn(C)n3)c(=O)[nH]c12 [Example 88, 6-fluoro-8-(methylamino)-N-(1-methyl-1H-pyrazole-3-yl)-2-oxo-1,2-dihydroquinoline-3-carboxamide]",,,,41
"CNc1cc(F)cc2cc(C(=O)Nc3ccnn3C)c(=O)[nH]c12 [Example 89, 6-fluoro-8-(methylamino)-N-(1-methyl-1H-pyrazole-5-yl)-2-oxo-1,2-dihydroquinoline-3-carboxamide]",29.9,> 8,,
"CNc1cc(F)cc2cc(C(=O)Nc3cnc(C(=O)NCCN4CCCCC4)nc3)c(=O)[nH]c12.O=CO [Example 90, 6-fluoro-8-(methylamino)-2-oxo-N-(2-{[2-(piperidine-1-yl)ethyl]carbamoyl}pyrimidine-5-yl)-1,2-dihydroquinoline-3-carboxamide-formate]",,> 16,2.45,
"CNc1cc(F)cc2cc(C(=O)Nc3ccc(C(=O)NO)cc3)c(=O)[nH]c12 [Example 92, 6-Fluoro-N-[4-(hydroxycarbamoyl)phenyl]-8-(methylamino)-2-oxo-1,2-dihydroquinoline-3-carboxamide]",2.56,> 4,,
"CCc1cc(C(=O)NCCN2CCOCC2)ccc1NC(=O)c1cc2cc(F)cc(NC)c2[nH]c1=O [Example 94, N-(2-ethyl-4-{[2-(morpholine-4-yl)ethyl]carbamoyl}phenyl)-6-fluoro-8-(methylamino)-2-oxo-1,2-dihydroquinoline-3-carboxamide]",131,> 2,,
"CNc1cc(F)cc2cc(C(=O)Nc3ccc(C(=O)O)cc3CN(C)C3CC3)c(=O)[nH]c12 [Example 97, 3-{[cyclopropyl (methyl)amino]methyl}-4-{[6-fluoro-8-(methylamino)-2-oxo-1,2-dihydroquinoline-3-carbonyl]amino} benzoic acid]",,> 8,0.6,
"CCCCCN(CCCCC)Cc1cc(C(=O)O)ccc1NC(=O)c1cc2cc(F)cc(NC)c2[nH]c1=O [Example 101, 3-[(dipentylamino)methyl]-4-{[6-fluoro-8-(methylamino)-2-oxo-1,2-dihydroquinoline-3-carbonyl]amino} benzoic acid]",0.8,,,
"CNc1cc(F)cc2cc(C(=O)Nc3ccc(C(=O)O)cc3CCC3CCCCC3)c(=O)[nH]c12 [Example 102, 3-(2-cyclohexylethyl)-4-{[6-fluoro-8-(methylamino)-2-oxo-1,2-dihydroquinoline-3-carbonyl]amino} benzoic acid]",,,228,
"CNc1cc(F)cc2cc(C(=O)Nc3ccc(C(=O)O)cc3CN(CCCN(C)C)CCCN(C)C)c(=O)[nH]c12 [Example 105, 3-({bis[3-(dimethylamino)propyl]amino}methyl)-4-{[6-fluoro-8-(methylamino)-2-oxo-1,2-dihydroquinoline-3-carbonyl]amino} benzoic acid]",29.8,> 32,,
"CNc1cc(F)cc2cc(C(=O)Nc3ccc(C(=O)O)cc3CN3CCCC(N)C3)c(=O)[nH]c12.Cl (stereo not drawn) [Example 109, 3-[(3-Aminopiperidin-1-yl)methyl]-4-[[6-fluoro-8-(methylamino)-2-oxo-1,2-dihydroquinoline-3-carbonyl]amino]benzoic acid-hydrochloride]",,> 32,15.1,
"CNc1cc(F)cc2cc(C(=O)Nc3ccc(C(=O)O)cc3CCN(C)C3CCCCC3)c(=O)[nH]c12 [Example 111, 3-{2-[cyclohexyl (methyl)amino]ethyl}-4-{[6-fluoro-8-(methylamino)-2-oxo-1,2-dihydroquinoline-3-carbonyl]amino} benzoic acid]",2.94,> 32,,
"CCCCCN(CCCCC)Cc1cc(C(=O)O)ccc1NC(=O)c1cc2cncc(NC)c2[nH]c1=O [Example 112, 3-[(dipentylamino)methyl]-4-{[8-(methylamino)-2-oxo-1,2-dihydro-1,6-naphthyridine-3-carbonyl]amino}benzoic acid]",4.13,> 64,,
"CNc1cc(F)cc2cc(C(=O)Nc3ccc(C(=O)O)cc3CNC3CCCCC3)c(=O)[nH]c12.O=C(O)C(F)(F)F [Example 113, 3-[(cyclohexylamino)methyl]-4-{[6-fluoro-8-(methylamino)-2-oxo-1,2-dihydroquinoline-3-carbonyl]amino}benzoic acid-trifluoroacetate]",,32,0.26,
"CNc1cc(F)cc2cc(C(=O)Nc3ccc(C(=O)O)cc3N(C)C3CCCCC3)c(=O)[nH]c12 [Example 114, 3-[Cyclohexyl(methyl)amino]-4-[[6-fluoro-8-(methylamino)-2-oxo-1,2-dihydroquinoline-3-carbonyl]amino]benzoic Acid]",339,> 32,,
"CNc1cc(F)cc2cc(C(=O)Nc3ccc(CO)cc3CN(CCO)C3CCCCC3)c(=O)[nH]c12 [Example 124, N-[2-{[cyclohexyl(2-hydroxyethyl)amino]methyl}-4-(hydroxymethyl)phenyl]-6-fluoro-8-(methylamino)-2-oxo-1,2-dihydroquinoline-3-carboxamide]",1.6,,,
